According to patent US10137181B2, “Isolated donor MHC-derived peptide and uses thereof” (INSERM (INSTITUT NATIONAL DE LA SANTÉ ET DE LA RECHERCHE …, priority 2014, dated 2018):

Assays:
CD8^+CD40Ig Tregs [1] = test: MLR coculture assay: CD8+CD40Ig Treg activation (CD25 expression) by donor MHC-derived peptides in the presence of syngeneic pDCs; type: cell-based, rat; details: 6 days culture, CpG-matured syngeneic pDCs; for activation of CD8+CD40Ig Tregs (CD25 upregulation), in words: individual peptide, derivatives compared with Bu31
Source text: FIG. 1: Analysis of CD8+CD45RClow Tregs activation in response to donor-derived peptide stimulation. (A) CD8+ Tregs were cocultured for 6 days with syngeneic CpG-matured pDCs in the presence of peptides. For each experiment, the percentage of CD25 positive Tregs after 6 days of coculture with pDCs only, was given the value 1. Mean value 1 is equal to 32.85±1.98%. Results are expressed as the ratio±SEM between the percentage of CD25 positive cells after peptide stimulation and percentage of CD25 positive cells in the control condition without peptide. *p<0.05, **p<0.01 and ***p<0.001 versus control condition (value 1.0). n=4 to 18 for each peptide. (B) Analysis of Treg activation in response to Bu31 shorter peptide derivatives. On the left, 15 Bu31-derivatives are detailed and classified by aa sequence length, from 9 aa to 15 aa. The box highlights mismatched aa between the donor and recipient. On the right, Treg activation in response to Bu31-derivatives was analyzed by CD25 expression. CD8+ Tregs were cocultured for 6 days with syngeneic CpG-matured pDCs in the presence of each peptide. Bars represent the ratio between the percentage of CD25 positive cells after peptide stimulation and percentage of CD25 positive cells in the control condition without peptide. *p<0.05, **p<0.01 versus Bu31 condition. n=3 to 14 for each peptide.
(§1) Mixed lymphocyte reaction: For MLR coculture assays, pDCs from LEW.1A naive rats (1.25×10^4 cells), syngeneic CD8^+CD40Ig Tregs (5×10^4 cells) and 120 μg/ml of allogeneic peptides were plated in triplicate in 200 μl of complete RPMI-1640 medium in round-bottom 96 wells plates for 6 days at 37° C., 5% CO2. pDCs were matured with 0.5 μM of CpG ODN 1826.
(§2) Proliferation of CFSE-labeled naive CD4^+CD25^− T cells and phenotype of CD8^+CD45RC^low Tregs were analyzed by flow cytometry on a FACSCanto II cytometer (BD Biosciences) after gating on TCR^+CD4^+ cells or TCR^+CD8^+ cells among live cells (DAPI negative).
(§3) Extracellular and intracellular staining: For extracellular staining, cells were stained with the following mAbs: anti-TCRαβ (R73, Alexa Fluor 647-conjugated), anti-CD8α (OX8, PE-Cy7-conjugated, Ebiosciences), anti-CD4 (W3.25, PE-Cy7-conjugated), anti-CD45RC (OX22, FITC-conjugated), anti-CD28 (JJ319, biotin-labeled), anti-CD71 (OX26, biotin-labeled), anti-CD25 (OX39, biotin-labeled) and anti-MHC-II (OX6, biotin-labeled).
In the rat MHC-mismatched heart allograft model, donors (RT1^u) and recipients (RT1^a) are mismatched for all MHC molecules. We therefore aligned donor and recipient MHC I and II amino acids (aa) sequences and designed 82 overlapping 16-mer peptides matching the polymorphic domains of donor MHC I and II molecules (4-6). Peptides were first grouped into pools of 6 to 8 peptides (30 μg/ml of each peptide) and tested in an in vitro assay where immature or mature syngeneic recipient plasmacytoic dendritic cells (pDCs) and sorted-CD8^+CD40Ig Tregs from CD40Ig-treated long-term allograft bearing recipients were cocultured for 3 or 6 days. With immature pDCs, we observed no significant activation of CD8^+CD40Ig Tregs at day 3 or day 6 with any of the allogeneic pools of peptides. After stimulation with mature pDCs and pools of allogeneic peptides we observed at day 3 a slight upregulation of CD25 expression of a small population of CD8^+CD40Ig Tregs, and at day 6, a significant up-regulation of CD25 expression following allogeneic stimulation.

CD4^+CD25^− T cells [2] = test: In vitro suppressive potential of CD8+CD45RClow Tregs from peptide-treated recipients; type: cell-based, rat; details: 6 days culture, donor LEW.1W pDCs, different effector:suppressor ratios
Protocol: FIG. 7. In vitro suppressive potential of CD8^+CD45RC^low Tregs from Bu31-treated recipients. The proliferation of naive CFSE-labeled LEW.1A CD4^+CD25^− T cells stimulated with donor LEW.1W pDCs was analyzed after 6 days of culture, in the presence of LEW.1A CD8^+CD45RC^low Tregs from naive or Bu31-treated recipients at different effector:suppressor ratio. The CD4^+CD25^− T cell proliferation alone was ˜80% and was given the value 100 in each experiment. Graphs represent the mean±SEM of relative CD4^+CD25^− T cell proliferation. *p<0.05.
For MLR suppressive assays, sorted CFSE-labeled CD4^+CD25^− T cells from LEW.1A origin (5×10^4 cells) and allogeneic pDCs isolated from donor LEW.1W animals (1.25×10^4 cells) were plated in triplicate for 6 days in a final volume of 200 μl of completed RPMI-1640 medium in round-bottom 96 wells plates with FACS-sorted freshly purified naive CD8^+CD45RC^low Treg cells or peptide-expanded CD8^+CD40Ig Treg cells (5×10^4 cells).
as §2

donor splenocytes = test: Donor specific alloantibody detection; type: in vivo, rat; details: long-term surviving treated recipients vs untreated rats, sera >120 days after transplantation
Protocol: FIG. 6: Anti-donor immune responses. Allo antibody production was evaluated in naive (n=3), grafted untreated (n=3) and long-term […] (n=4) animals. Sera were collected <30 days after rejection or >120 days after transplantation. Sera were incubated with donor splenocytes and analyzed by flow cytometry for IgG, IgG1 or IgG2b Abs production. Graph represents MFI±SEM.
Donor specific alloantibody detection: Alloantibodies were analyzed by cytofluorimetry as described elsewhere (14). Briefly, after digestion by collagenase D and red blood cell lysis, allogeneic spleen cells were incubated with diluted (⅛) heat-inactivated serum, and then with FITC-conjugated goat anti-rat IgG antibodies (H+L chain specific) (Jackson Laboratories), a mouse anti-rat IgG1 MAb (MCA 194, Serotec) or IgG2b (MCA 195, Serotec). […] Cells were analyzed using a FACS Canto II cytofluorimeter (BD Biosciences, Mountain View, Calif.) and the results were expressed as mean channel fluorescence for each serum.

[3] = tested on: heart allograft, LEW.1W donors into LEW.1A recipients; test: Cardiac allograft survival after in vivo peptide infusion
Protocol: Recipients were either untreated (n=9) or treated with continuous infusion of peptide by i.p mini osmotic pumps (ALZET), delivering from day-7 and for 28 days, either 20.83 μg/hour alone (Bu31 0.5 mg/day: n=6) or 40.66 μg/hour in the LEW.1W/LEW.1A (Du51 1 mg/day: n=5) or combined with a depleting anti-CD8 mAb (OX8) (n=2) or BN/LEW.1A (Du51 1 mg/day (BN/1A): n=4) strains combination.
Animals and cardiac transplantation models: Allotransplantations of heart were performed between whole MHC incompatible LEW.1W (RT1.A^u as donors) and LEW.1A (RT1.A^a as recipients) male rats as previously described (1).
Peptides treatment in vivo: 16-mer peptides were dissolved in 0.4% DMSO/PBS before injection. […] In the second protocol, mini osmotic pumps (ALZET, Cupertino, Calif., USA) were implanted intraperitoneally (i.p) in recipients and delivered continuously either 20.83 or 41.66 μg/hour of 16-mer peptides for 14 days. A first pump was implanted on day −7 before transplantation and was replaced by a second one at day +7, allowing delivery of 14 or 28 mg of peptide per animal for 28 consecutive days. A depleting anti-CD8α mAb (OX8, IgG1, 3 mg/kg) was injected i.p. twice a week from day −7 until rejection. Allografts were monitored daily by palpation and allograft rejection was defined as complete cessation of palpable heart beat.

CD8^+CD40Ig Tregs [4] = test: Flow cytometry phenotype of CD8+ Tregs after ex vivo peptide stimulation; type: cell-based, rat; details: 6 days of peptide stimulation
Protocol: (§4) FIG. 2: CD8+ Tregs phenotype following ex vivo allopeptide stimulation. (A) Tregs and syngeneic CpG-matured pDCs were cultured for 6 days, alone, with a control peptide or with peptide Bu31. Expression of indicated markers was analyzed on CD8+ Tregs in the culture supernatant by ELISA (A) or by flow cytometry (B) after in vitro stimulation. Graphs represent the mean±SEM. *p<0.05, **p<0.01, n=4 to 7.
as §1, §3
For intracellular staining, cells were then stained for Foxp3 (biotin-labeled, Ebiosciences) using BD cytofix/cytoperm kit (BD Biosciences) according to the manufacturer's instructions.
All biotinylated mAbs were visualized using Streptavidin-PerCP.Cy5.5 (BD Biosciences). A FACSCanto II cytofluorimeter (BD Biosciences) was used to measure fluorescence, and data were analyzed using FlowJo software (Tree Star, Inc. USA, version 7.6.5). Cells were first gated by their morphology and dead cells excluded by selecting DAPI negative viable cells.

CD4^+CD25^− T cells [5] = test: MLR suppressive assay with peptide-stimulated CD8+CD40Ig Tregs; type: cell-based, rat; details: day 6, donor LEW.1W pDCs, 1:1 effector:suppressor, vs Tregs stimulated by a non-activating peptide
Protocol: FIG. 3: Bu31-activated Tregs maintained efficient suppressive activity. Fresh CD8+CD40Ig Tregs and syngeneic CpG-matured pDCs were cocultured for 6 days with either Bu31 or a control peptide. At day 6, Tregs were isolated by cell sorting (TCR+) and their regulatory function was analyzed by measuring their capacity to suppress MLR assay. The relative proportion of naive CFSE-labeled dividing LEW.1A CD4+CD25− T cells after stimulation with donor LEW.1W pDCs was analyzed at day 6 of culture, in the absence or presence of 6 days peptide-stimulated CD8+ Tregs at a 1:1 ratio effector:suppressor. Graphs represent the mean±SEM. *p<0.05 (left). Plots are representative of four independent experiments (right). […]
as §2
Here, we investigated whether Bu31-stimulated CD8^+CD40Ig Tregs could efficiently suppress effector T cell proliferation after 6 days coculture and thus maintained their suppressor activity, compared to CD8^+CD40Ig Tregs stimulated with a non-activating control peptide. […] To evaluate this, we measured the relative proportion of dividing CD4^+CD25^− T cells at day 6 of coculture (FIG. 3).

CD8^+CD40Ig Tregs [6] = test: Cytokine ELISA in Treg/pDC coculture supernatants after peptide stimulation; type: cell-based, rat; details: 6 days peptide stimulation with pDCs
Protocol: as §4, §1
Cytokine assays: IFNγ, IL-10 were measured in coculture supernatants using ELISA from BD Biosciences OptEIA, IL-12 and TGFβ using ELISA from Invitrogen and R&D System respectively.

cardiac grafts = test: Morphometric analysis of cardiac grafts (chronic rejection); type: in vivo, rat; details: long-term surviving peptide-treated recipients
Protocol: Morphometric analysis of cardiac grafts: The upper third of the graft was fixed in paraformaldehyde and embedded in paraffin. Five μm coronal sections were stained with hematoxylin-eosine-safron. Tissues were analyzed by a pathologist blinded to the groups and chronic rejection was evaluated as previously described (16).

Q: How did the “activation of CD8+CD40Ig Tregs (CD25 upregulation), in words” value (“activation of CD8+CD40Ig Tregs” below) (CD8^+CD40Ig Tregs [1]) turn out when “LRYDSDVGEYRAVTE (Synthetic 15-mer peptide 31-15)” was run?
A: much stronger and significant CD25 upregulation

Q: Which “activation of CD8+CD40Ig Tregs” value (CD8^+CD40Ig Tregs [1]) does the source give for “SDVGEYRAVTELGR (Synthetic 14-mer peptide 31-14)” here?
A: much stronger and significant CD25 upregulation

Q: Which “activation of CD8+CD40Ig Tregs” value (CD8^+CD40Ig Tregs [1]) does the source give for “YLRYDSDVGEYR (Synthetic 12-mer peptide 31-10)” here?
A: much stronger and significant CD25 upregulation

Q: “YLRYDSDVGEYRAV (Synthetic 14-mer peptide 31-13)” was tested. Which “activation of CD8+CD40Ig Tregs” value (CD8^+CD40Ig Tregs [1]) did it give?
A: much stronger and significant CD25 upregulation

Q: For “YLRYDSDVGEYRAVTE (Synthetic Subdominant peptide Bu31) [16-mer from the β1 chain of donor MHC class II RT1.B^u]”, which “ex vivo suppressive activity of CD8+CD45RClow Tregs from treated recipients on effector CD4+ T cell proliferation” value (CD4^+CD25^− T cells [2]) is on record?
A: superior suppressive activity

Q: What about the IgG1 alloantibodies production (donor splenocytes) of the same sequence?
A: total inhibition

Q: What about the IgG2b alloantibodies production (donor splenocytes) of the same sequence?
A: total inhibition

Q: And the “total IgG alloantibodies production” value (donor splenocytes)?
A: total inhibition

Q: And the “prolongation of allograft survival” value ([3]; 0.5 mg/day i.p. mini-osmotic pumps for 28 days from day -7, monotherapy)?
A: not sufficient to induce prolongation of allograft survival

Q: And the “indefinite allograft survival, share of recipients” value ([3]; 1 mg/day i.p. mini-osmotic pumps for 28 days from day -7, LEW.1W/LEW.1A)?
A: 80%

Q: And the “rejection of Brown Norway (BN) third party grafts, time after transplantation” value ([3]; peptide infusion 1 mg/day, BN/LEW.1A combination)?
A: 7 days

Q: And the “CD28 expression on CD8+ Tregs” value (CD8^+CD40Ig Tregs [4])?
A: upregulation

Q: And the “CD71 expression on CD8+ Tregs” value (CD8^+CD40Ig Tregs [4])?
A: upregulation

Q: What about the “Foxp3 expression in CD8+ Tregs” value (CD8^+CD40Ig Tregs [4]) of the same sequence?
A: no modification

Q: What about the “MHC class II expression on CD8+ Tregs” value (CD8^+CD40Ig Tregs [4]) of the same sequence?
A: upregulation

Q: What about the “suppressive activity of peptide-stimulated Tregs: relative proportion of dividing CD4+CD25− effector T cells” value (CD4^+CD25^− T cells [5]) of the same sequence?
A: maintained an efficient suppressive activity

Q: And the “IFNγ expression in culture supernatant” value (CD8^+CD40Ig Tregs [6])?
A: significant increased expression

Q: What about the “IL-10 expression in culture supernatant” value (CD8^+CD40Ig Tregs [6]) of the same sequence?
A: no modification

Q: What about the “IL-12 expression in culture supernatant” value (CD8^+CD40Ig Tregs [6]) of the same sequence?
A: no modification

Q: And the “TGFβ expression in culture supernatant” value (CD8^+CD40Ig Tregs [6])?
A: no modification

Q: And the “signs of chronic rejection, anatomopathologic analysis of the graft” value (cardiac grafts)?
A: no signs of chronic rejection

Q: What about the “upregulation of CD25 expression at the cell surface of CD8+CD40Ig Tregs, ratio of % CD25 positive cells vs. no peptide” value (CD8^+CD40Ig Tregs [1]; individual 16-mer peptide, mean±SEM) of the same sequence?
A: 1.67±0.09 fold
